Results from patent publication US20250018019A1, “TREATMENT OF INTERFERON DRIVEN INFLAMMATION” (The Provost, Fellows, Foundation Scholars and the other …, priority 2023, published 2025).
Structures can show the parent of a compound that is named as a salt.

Columns and labels:
human PBMCs = experiment: RT-qPCR gene expression in human PBMCs; assay type: cell-based; conditions: LPS-stimulated human PBMCs, LPS 4 h
Procedure: Human blood samples from healthy donors were collected and processed at the School of Biochemistry and Immunology in TBSI (TCD). Blood samples were obtained anonymously and written informed consent for the use of blood for research purposes has been obtained from the donors. All the procedures involving experiments on human samples have been approved by the School of Biochemistry and Immunology Research Ethics Committee (TCD). Experiments were conducted according to the TCD guide on good research practice, which follows the guidelines detailed in the National Institutes of Health Belmont Report (1978) and the Declaration of Helsinki. […] The remaining pellet of mononuclear cells was resuspended, counted, and plated at 1×10^6 cells/ml in RPMI supplemented with FCS (10%) and penicillin/streptomycin (1%). […]
RNA extraction from cells was carried out using a Purelink™ RNA kit (Invitrogen) according to the manufacturer's instructions. […] Isolated RNA was quantified using a NanoDrop 2000 spectrophotometer, and RNA concentration was normalised to the lowest concentration across all samples with RNAse-free water. If necessary, samples were DNAse-treated after quantification using DNAse I (Thermo Fisher) according to the manufacturer's instructions. […]

BMDMs = experiment: LC-MS steady-state metabolomics / fumarate levels in BMDMs; assay type: cell-based, mouse; conditions: LPS 4 h; for ratios of ATP/ADP, ATP/AMP, and P-creatine/creatine: BMDMs pre-treated 3 h (FHIN1 10 or 20 μM, DMF 25 μM)
Procedure: All compounds used DMSO as a vehicle except for 4-hydroxy tamoxifen (EtOH), NAC (PBS), and AOAA for tracing experiments (Media). LPS was used at a concentration of 100 ng/ml for indicated timepoints (2, 3, 4, 6, 8, 24, 48 h). FHIN1 (10 or 20 μM), MMF (50 or 100 μM), DMF (25 μM), AOAA (5 mM), oligomycin (10 μM), CCCP (50 μM) NAC (1 mM), and IMT1 (10 μM) pre-treatments were performed for 3 h prior the addition of LPS. Cells were treated with valinomycin (10 nM) 15 mins before LPS stimulation. Anti-CD210 or IgG control (10 μg/ml) antibodies were added to cells 1 h prior to LPS stimulation. Recombinant mouse IL-10 protein (100 ng/ml) was added to cells at the same time as LPS. Cells were treated with IFN-B1 (220 ng/ml) for 3 h. Cells were treated with C-178 (1 μM) 1 h prior to LPS stimulation or transfection with 2′3′-cGAMP (1.5 μg/ml) for 4 hrs to achieve cGAS-STING activation. Cells were treated with ODN 2088 (1 μM) for 1 hr prior to LPS stimulation or transfection with CPG ODN 1826 (1.5 μg/ml) to achieve TLR9 activation. 3 different timepoints of 4-hydroxy tamoxifen (TAM) (600 nM or 2 μM) or EtOH treatment were performed-these are specified in the individual figure legends. For ‘48 h’ treatments EtOH/TAM was added on day 5 of 6 during the BMDM differentiation protocol. On day 6 they were plated with EtOH/TAM (left overnight) and treated the following day. For ‘72 h’ treatments EtOH/TAM was added on day […] of 6 during the BMDM differentiation protocol. On day 6 they were plated with EtOH/TAM (left overnight) and treated the following day. For ‘96 h’ treatments EtOH/TAM was added on day […] of 6 during the BMDM differentiation protocol. On day 6 they were plated with EtOH/TAM and treated 2 days later.
BMDMs (3 independent mice) were plated at 0.5×10^6 cells/well in 12-well plates in technical triplicate per condition, treated as indicated, snap frozen and stored at −80° C. For metabolomics on cytosolic fraction, BMDMs were plated at 10×10^6 cells/10 cm dish and rapid fractionation was performed as previously reported^16. Metabolite extraction solution (MES) (methanol/acetonitrile/water, 50:30:20 v/v/v) was added (0.5 mL per 1×10^6 cells) and samples were incubated for 15 min on dry ice. The resulting suspension was transferred to ice-cold microcentrifuge tubes. Samples were agitated for 20 min at 4° C. in a thermomixer and then incubated at −20° C. for 1 h. Samples were centrifuged at maximum speed for 10 min at 4° C. The supernatant was transferred into a new tube and centrifuged again at maximum speed for 10 min at 4° C. The supernatant was transferred to autosampler vials and stored at −80° C. prior to analysis by LC-MS.
HILIC chromatographic separation of metabolites was achieved using a Millipore Sequant ZIC-PHILIC analytical column (5 μm, 2.1×150 mm) equipped with a 2.1×20 mm guard column (both […] particle size) with a binary solvent system. Solvent A was 20 mM ammonium carbonate, 0.05% ammonium hydroxide; Solvent B was acetonitrile. The column oven and autosampler tray were held at 40° C. and 4° C., respectively. The chromatographic gradient was run at a flow rate of 0.200 mL/min as follows: 0-2 min: 80% B; 2-17 min: linear gradient from 80% B to 20% B; 17-17.1 min: linear gradient from 20% B to 80% B; 17.1-22.5 min: hold at 80% B. Samples were randomized and analysed with LC-MS in a blinded manner and the injection volume was 5 μl. Pooled samples were generated from an equal mixture of all individual samples and analysed interspersed at regular intervals within sample sequence as a quality control. Metabolites were measured with a Thermo Scientific Q Exactive Hybrid Quadrupole-Orbitrap Mass spectrometer (HRMS) coupled to a Dionex Ultimate 3000 UHPLC or with Vanquish Horizon UHPLC coupled to an Orbitrap Exploris 240 mass spectrometer (both Thermo Fisher Scientific) via a heated electrospray ionization source. […]

Row | Compound | IL10 expression (human PBMCs) | Tnfa expression (human PBMCs) | ratios of ATP/ADP, ATP/AMP, and P-creatine/creatine (BMDMs) | GSSG/GSH ratio (BMDMs; BMDMs pre-treated 3 h) | TCA cycle metabolites including citrate, aconitate, itaconate and succinate (BMDMs; BMDMs pre-treated 3 h) | aconitate/citrate ratio (BMDMs; BMDMs pre-treated 3 h) | fumarate and 2SC accumulation (BMDMs; BMDMs pre-treated 3 h) | glyceraldehyde 3-phosphate (G3P)/2/3-phosphoglycerate (2/3-PG) ratio (BMDMs; BMDMs pre-treated 3 h) | total glutathione (BMDMs; BMDMs pre-treated 3 h)
1 | CCOC(=O)[C@@]12CCCC=C1N(Cc1ccc(-c3ccccc3)cc1)C(=O)[C@H]2CC(=O)NC [FHIN1, Fumarate hydratase-IN-1] | suppressed | increased | reduced | unchanged | alterations | decreased | enhanced | increased | depletion
2 | COC(=O)/C=C/C(=O)OC [DMF, dimethyl fumarate] | – | – | no effect | – | – | – | – | – | –
